One experiment relates to liver mitochondria. The experiment in a line: S-nitrosation of mitochondrial protein thiols (chemiluminescence SNO assay). The note with it: for S-nitrosation of mitochondrial proteins: 2.5 min incubation, SNAP even at 50 μM. In kind it is biochemical, rat. As to the method:
FIG. 11 is a series of graphs showing S-nitrosation of mitochondrial thiols by MitoSNAP. (a) Time course of S-nitrosation of mitochondrial proteins by MitoSNAP. Liver mitochondria (1 mg protein) were incubated in 1 ml KCl buffer supplemented with rotenone and succinate in the presence of 5 μM MitoSNAP. At various times mitochondria were treated with 10 mM N-ethylmaleimide (NEM), isolated by centrifugation and the S-nitrosothiol content assessed. Data are of a typical experiment showing means±range of duplicate samples for each time point, each measured in duplicate. The experiment was repeated twice. (b) S-nitrosation of mitochondrial proteins by different concentrations of MitoSNAP and SNAP. Aliquots of liver mitochondria were incubated with the indicated concentrations of MitoSNAP or SNAP for […] in the presence or absence of 500 nM FCCP and then assessed for S-nitrosothiol content as in (a). For the +NEM sample, 10 mM NEM was added to the mitochondria and 1 min later 5 μM MitoSNAP was added and incubated for a further 2.5 min. Data are of a typical experiment showing means±range of duplicate samples for each time point, each measured in duplicate. The experiment was repeated twice. (c) S-nitrosation of cellular protein thiols by MitoSNAP. C2C12 cells were preincubated for 5 min in 2 ml cell culture medium containing either 20 μM FCCP or DMSO carrier, then 5 μM MitoSNAP or SNAP was added. After further incubation for 5 min at 37° C. in the dark, the medium was removed and the content of S-nitrosated proteins was measured. Data are means±range of the duplicate determinations. […] (d) S-nitrosation of a mitochondria-enriched cell subfraction. C2C12 cells were preincubated for 5 min in cell culture medium containing either 20 μM FCCP or dimethylsulfoxide (DMSO) carrier, then 5 μM MitoSNAP was added. After 5 min at 37° C. in the dark, the medium was removed and the cells were processed to isolate a mitochondria-enriched fraction and S-nitrosated protein was then determined Data are mean±sem of triplicate determinations (+MitoSNO1), or mean±range of duplicate determinations (+FCCP). (e & f) Visualisation of S-nitrosated mitochondrial proteins by copper/ascorbate-dependent labelling of thiols with a Cy3 fluorophore. Liver (e) or heart (f) mitochondria (1 mg protein) were incubated in 1 ml KCl buffer supplemented with rotenone and succinate in the presence of no additions, 10 μM MitoSNAP or 500 μM diamide for 5 min. S-nitrosated thiols were then selectively tagged with Cy3 maleimide and protein (10 μg) was then separated on a 12.5% SDS PAGE gel which was stained with coomassie blue and scanned for Cy3 fluorescence. The Cy3 fluorescence (SNO) and coomassie staining (coomassie) of each gel is shown.
FIG. 13 is a trace and graph showing limited S-nitrosation of mitochondria by DetaNONOate. […] Where indicated 500 μM DetaNONOate was added and the concentration of NO^• was measured over time, before 5 μM OxyHb was added. […] Then protein pellets were resuspended and processed for analysis of protein S-nitrosothiols. Control incubations in the presence of 10 mM NEM were also carried out. Data are means±range of two independent experiments each being the average of four mitochondrial incubations.
Nitrite, nitric oxide and S-nitrosothiol measurements. Nitrite was analyzed by the Griess assay (Molecular Probes). Nitric oxide was measured using an NO^• electrode (World Precision Instruments Ltd, UK) connected to an Apollo 4000 Free Radical Analyser. The electrode was inserted into a stirred, sealed 3 ml chamber with a Clark type O2 electrode (Rank Brothers, UK) built into its base and was thermostatted at 37° C. The NO^• electrode was calibrated by adding SNAP to argon-purged, saturated CuCl. OxyHb was prepared by reduction of bovine methemoglobin with sodium dithionite.

For another experiment, the system named is rat thoracic aorta. The experiment in a line: Relaxation of pre-contracted rat thoracic aorta (myograph). The note with it: for EC50: pre-contracted rat thoracic aorta, read-out: EC50 blood vessel relaxation. As to the method: FIG. 16 is a series of graphs showing the vasodilatory and tissue protective effects of MitoSNAP. (a) Dose-response curves for the effect of MitoSNAP and related compounds on blood vessel relaxation. The effects of intact or decomposed MitoSNAP and SNAP on pre-contracted rat thoracic aorta mounted in a myograph were determined Data represent means±sem. For MitoSNAP n=8 from experiments on two independent rat aorta preparations. For decomposed MitoSNAP and SNAP experiments the data (n=4) are from one aorta preparation. (b) EC50 for the effect of MitoSNAP and SNAP on blood vessel relaxation. The EC50 values were determined from experiments shown in (a) above. ***p<0.001 by Student's unpaired t-test. (c & d) MitoSNAP protects against I/R injury in Langendorff-perfused mouse hearts. Hearts from C57BL6 mice were Langendorff perfused and subjected to 25 min global normothermic ischemia followed by 1 h of reperfusion. MitoSNAP or MitoNAP (100 nM final), or vehicle carrier, was added via an infusion port above the aortic cannula during reperfusion. Hearts were then stained with 2,3,5-triphenyltetrazolium chloride (TTC) to visualize infarct. (c) Protection of heart function by MitoSNAP during I/R injury. Left ventricular contractile function was recorded throughout the I/R protocol.
Sprague-Dawley rats (male 250-350 g) were anesthetized by intraperitoneal injection of ketamine and xylazine (100 and 16 mg/kg, respectively) and thoracic aortas were excized and placed in Krebs-Henseleit buffer (pH 7.3) at 37° C. […] The concentrations of MitoSNAP and SNAP were calculated using ε=950 M^−1.cm^−1 and 1168 M^−1.cm^−1 at 340-344 nm respectively in PBS supplemented with 10 μM DTPA.
The uptake of MitoSNAP into mitochondria within vascular tissue and the subsequent NO^• release may make MitoSNAP a potent vasodilator. This was evaluated by determining whether MitoSNAP could relax the smooth muscle in blood vessel walls. […]

As a reminder, the EC50 is the concentration needed to bring the measured effect to its halfway point.

On to `CC(=O)NC(C(=O)O)C(C)(C)SN=O` (racemic) [SNAP, S-nitroso-N-acetyl-DL-penicillamine, reference compound], for which the “S-nitrosation of mitochondrial proteins” value with liver mitochondria is on record as “negligible S-nitrosation”. In addition, in the experiment with rat thoracic aorta, the EC50 was 19.5 nM.

Take `CC(=O)NC(C(=O)NCCCCC[P+](c1ccccc1)(c1ccccc1)c1ccccc1)C(C)(C)SN=O.CS(=O)(=O)[O-]` (stereo not drawn) [MitoSNAP, [5-(2-acetylamino-3-methyl-3-nitrosothio-butyrylamino)-penty1]-triphenylphosphonium methanesulfonate]: in the experiment on liver mitochondria (5 μM), the “maximum S-nitrosation as share of the total number of protein thiols available” value is reported as around 1% and the “maximum extent of mitochondrial protein S-nitrosation” value is listed as around 500 pmol SNO/mg protein. The “S-nitrosated proteins after sulfosalicylic acid lysis and precipitation (control experiment)” value with liver mitochondria (5 μM, 5 min, mean±SEM of 4) is reported as 359±89 pmol SNO/mg protein. Also, in the experiment with liver mitochondria (5 μM, liver mitochondria), the “time of peak S-nitrosation of mitochondrial proteins” value was 2 to 3 min. Further, the “S-nitrosation of mitochondrial proteins” value with liver mitochondria was “extensive, concentration-dependent S-nitrosation”. Further, the EC50 in the experiment with rat thoracic aorta came out at 4.5 nM. Moreover, the “vasodilator effect after degradation of the SNO moiety” value in the experiment with rat thoracic aorta (pretreated (light) to degrade SNO) is “ineffective”.
